One series has as its system HRV14. Description: HRV14 HeLa EC50. To be noted: for EC50: Human rhinovirus sp., HRV14, H1-HeLa cells, 96 h, 37° C. It counts as cell-based, human rhinovirus. On the procedure: H1-HeLa cells, cultured in complete RPMI 1640 medium containing 10% heat-inactivated FBS and 1% Penicillin/Streptomycin, were seeded in 96 well plates at 5000 cells/well one day prior to compound dosing and infection. The antiviral activity of each compound was measured in triplicate. Compounds were added directly to the cell cultures in serial 3-fold dilutions using the HP300 digital dispenser (Hewlett Packard, Palo Alto, CA) immediately prior to infection. The plates were transferred to BSL-2 containment and 100 μL of 1/4000 dilution of HRV14 virus stock was added to each well containing cells and serially diluted compounds. Each plate included 6 wells of infected untreated cells and 6 wells of cells containing 5 μM Rupintrivir that served as 0% and 100% virus inhibition control, respectively. Following the infection, test plates were incubated for 96 h in a tissue culture incubator set to 37° C./5% CO2. Following incubation, the H1-HeLa cells were removed from incubation and allowed to equilibrate to 25° C. Cell viability was determined by removing 100 μL of culture medium and adding 100 μL of Cell-Titer Glo viability reagent. The mixtures were incubated on a shaker for 10 minutes at 25° C., and the luminescence signal was quantified on an Envision luminescence plate reader.

The nature of the next series: Huh-7 cytotoxicity assay. To be noted: human, Huh7 cells. The class given is cell-based. On the procedure:
(§1) Compounds were tested in a high-throughput 384-well assay format for cytotoxicity in Huh7 cells (Hepatocarcinoma cell line). Cells were diluted in media (DMEM (15-018-CM), 10% FBS, 1% NEAA, 1% PSG) to 16.6K cells/mL and plated at 90 uL/well into 384 well poly-D-lysine coated assay plates and placed in an incubator at 37° C. and 5% CO2. Compounds were serially diluted (1:3) in 100% DMSO in 384-well plates in quadruplicate. DMSO and 2 mM Puromycin were included as negative and positive controls respectively. 24 hours after cell plating, a 384 channel pipettor was used to transfer 0.4 uL from the compound plate to the assay plate. Assay plates were returned to the incubator. After 5 days, assay plates were washed with 80 uL/well of PBS before addition of 20 μL of Cell Titer Glo. Assay plates were read on the Envision plate reader. […] CC50 values were calculated in Accord (on-line tool) using a one-site dose-response model to generate sigmoidal curve fits.

Series [1] in a line: Stability assay in human hepatic S9 fractions. To be noted: 37° C., NADPH and UDPGA, read-out: Hum HepS9 t1/2. It counts as in vitro ADME. On the procedure: For S9 stability, the compounds were incubated at 2 μM in cynomolgus monkey or human hepatic S9 fractions for up to 90 min at 37° C. in the presence of NADPH and UDPGA (Phase I and Phase II cofactor, Sigma-Aldrich). At desired time points following compound addition, samples were quenched with 9 volumes of an aqueous solution containing internal standard, 50% acetonitrile and 25% methanol. Sample plates were centrifuged at 3000 g for 30 min, and 10 μL of the resulting solution was analyzed by LC-MS/MS. Data (analyte to internal standard peak area ratio) were plotted on a semi log scale and fitted using an exponential fit. The half-life (T1/2) was determined assuming first order kinetics.

A further series can be described thus: in vitro. It counts as cell-based. To be noted: human, read-out: CC50 GALHEPG2. On the procedure:
The compound of Formula I and compounds 1, 2 and 6 were tested in a high-throughput 384-well assay format for cytotoxicity in galactose-adapted HepG2 cells (human liver carcinoma cell line).
as §1, with “Cells” for “Compounds were tested in a high-throughput 384-well assay format for cytotoxicity in Huh7 cells (Hepatocarcinoma cell line). Cells”, “(11966),” for “(15-018-CM),”, “NEAA, 0.2% Galactose, 1% Pyruvate, 1% Glutamax,” for “NEAA,”

The test system of a further series is DENV2 replicon. Description: DENV-2 Huh-7 Rep EC50. The class given is cell-based, dengue virus. To be noted: for EC50: Dengue virus, Huh-7 cells containing DENV2 replicon, 48 hours, read-out: DENV Huh7 REP EC50. On the procedure: In 384 well plates (Greiner, Cat #781091), compounds were acoustically transferred at 200 nl per well in a 8 compound (4 replicates) or 40 compound dose response format (3 replicates). For all plates tested, Balapiravir, GS-5734 and NITD008 were included as positive inhibition controls alongside 0% inhibition, DMSO-only negative control wells. Following compound addition, Huh-7 cells containing the DENV2 replicon construct were harvested following standard cell culture procedures and were adjusted to a concentration of 1.25E5 cells/mL in cell culture media composed of cDMEM without genticin. 40 μL of the cell stock was then added to each well for a final cell density of 5,000 cells/well. Cell and compound mixtures were incubated at 37° C./5% CO2 for 48 hours. Prior to harvesting cells, EnduRen Live Cell Substrate (Promega, Cat #E6481) was prepared by suspending 3.4 mg into 100 uL of DMSO to generate a 60 mM stock solution. The stock solution was then diluted 1:200 in pre-warmed cDMEM and 10 uL of this diluted solution was added to each well of the 384 well plates. Plates were then centrifuged at 500 rpm briefly and were placed on a plate shaker for 2 min. Following mixing, plates were incubated at […] for 1.5 hours prior to measuring luminescence on an Envision luminometer.
On the technique in general: A replicon is a self-replicating genome or part of one, used to study replication in cells.

Series [2] can be described thus: Thermodynamic solubility assay. It counts as physicochemical. To be noted: thermodynamic from solid, room temperature, four days. The protocol:
Excess solid compound was used to saturate aqueous samples of the compounds. The tubes were placed on an agitator set at 1000 rpm and remained under constant agitation for four days. Following agitation, it was confirmed that excess solids were present in all tubes. The tubes were centrifuged at 10,000 rpm for 5 minutes to remove excess solids and the supernatant was transferred to a new vial. Concentration analysis was determined by UPLC and quantified against internal standards.

[3] abbreviates: pH 7, aqueous buffer, phosphate buffered saline solution, read-out: pH 7 Solubility.
Setting [4] is: simulated gastric fluid, 10 mM hydrochloric acid (pH 2.0), read-out: pH 2 Solubility.

The term EC50 denotes the concentration at which the effect is half-maximal. One may read the CC50 as the concentration giving 50% cytotoxicity.

Structures are written as SMILES. Converted amounts (≈) assume the structure as drawn. Like-named read-outs stand apart in the source and are kept apart here.

As for `CCOC(=O)[C@H](C)NP(=O)(OC[C@@]1(C#N)O[C@@H](c2ccc3c(N)ncnn23)[C@H](O)[C@@H]1O)Oc1ccccc1` (stereo partly drawn) [Compound 1, reference compound], the 50% effective concentration (EC50) in the series on HRV14 was 1 µM; in the series on DENV2 replicon it was 73.4 µM. In addition, the CC50 at 5 days in the series “Huh-7 cytotoxicity assay” and in “in vitro” was above 44.4 µM each time. The half-life at 2 μM in series [1] was 12 min.

On to `CCC(CC)COC(=O)[C@H](C)NP(=O)(OC[C@@]1(C#N)O[C@@H](c2ccc3c(N)ncnn23)[C@H](O)[C@@H]1O)Oc1ccccc1` (stereo partly drawn) [Compound 2, reference compound], for which the EC50 was 0.171 µM in the series with HRV14 and 5.54 µM in the series with DENV2 replicon. For the same compound, the CC50 at 5 days in the series “Huh-7 cytotoxicity assay” and in the series “in vitro” was above 44.4 µM in each case. The half-life at 2 μM in series [1] was 12 min. The solubility thermodynamic at 4 days in series [2] (setting [3]) was 18 µg/mL (≈ 0.0299 mM); in series [2] (setting [4]), 3720 µg/mL (≈ 6.17 mM).

Regarding `CCC(CC)COC(=O)[C@H](C)N[P@](=O)(OC[C@@]1(C#N)O[C@@H](c2ccc3c(N)ncnn23)[C@H](O)[C@@H]1O)Oc1ccccc1` [Compound 6, 2-ethylbutyl ((S)-(((2R,3S,4R,5S)-5-(4-aminopyrrolo[2,1-f][1,2,4]triazin-7-yl)-2-cyano-3,4-dihydroxytetrahydrofuran-2-yl)methoxy)(phenoxy)phosphoryl)alaninate], the CC50 at 5 days is 17.2 µM in “Huh-7 cytotoxicity assay” and above 88.9 µM in “in vitro”. Besides, the half-life at 2 μM in series [1] was 7 min. The solubility thermodynamic at 4 days is 16 µg/mL (≈ 0.0266 mM) in series [2] (setting [3]) and 3790 µg/mL (≈ 6.29 mM) in series [2] (setting [4]).

As for `C[C@H](N[P@](=O)(OC[C@@]1(C#N)O[C@@H](c2ccc3c(N)ncnn23)[C@H](O)[C@@H]1O)Oc1ccccc1)C(=O)OC1CCCCC1` [Formula I, cyclohexyl ((S)-(((2R,3S,4R,5S)-5-(4-aminopyrrolo[2,1-f][1,2,4]triazin-7-yl)-2-cyano-3,4-dihydroxytetrahydrofuran-2-yl)methoxy)(phenoxy)phosphoryl)-L-alaninate], the “times more potent relative to compound 1, HRV14 HeLa” value in the series with HRV14 (EC50 ratio vs compound 1) is listed as around 12.8 times. For the same compound, in the series with HRV14 (EC50 ratio vs compound 2), the “times more potent compared to compound 2, HRV14 HeLa” value is on record as “about 2.2 times”. The “times more potent relative to compound 3, HRV14 HeLa” value in the series with HRV14 (EC50 ratio vs compound 3) is “about 23.2 times”. Moreover, in the series with HRV14 (EC50 ratio vs compound 5), the “times more potent relative to compound 5, HRV14 HeLa” value is reported as “about 44.0 times”. The EC50 in the series with HRV14 worked out at 0.078 µM; in the series on DENV2 replicon, 2.94 µM. Also, the CC50 at 5 days in the series “Huh-7 cytotoxicity assay” and in the series “in vitro” was above 88.9 µM in each case. Besides, the half-life at 2 μM in series [1] is 31 min. The “times more potent than compound 1, DENV huh7 Rep” value in the series on DENV2 replicon (EC50 ratio vs compound 1) was “about 25.0 times”. In the series on DENV2 replicon (EC50 ratio vs compound 2), the “times more potent compared to compound 2, DENV huh7 Rep” value is listed as “about 1.9 times”. Besides, the solubility thermodynamic at 4 days in series [2] (setting [3]) is 131 µg/mL; in series [2] (setting [4]), 4120 µg/mL.

(Values after US20250034186A1, “ANTIVIRAL COMPOUNDS” (priority 2020, published 2025).)
